Data reported in ChEMBL document CHEMBL5465560, “Selectivity Literature for EUbOPEN Chemogenomic Library” (2024).
Blank lines part the entries; values can stand above or below the compound they belong to.

Key:
[1] = biological target: T1, Dual specificity mitogen-activated protein kinase kinase 7 (Homo sapiens) (UniProt O14733); details: at 10 µM
T1 sequence (whole entry): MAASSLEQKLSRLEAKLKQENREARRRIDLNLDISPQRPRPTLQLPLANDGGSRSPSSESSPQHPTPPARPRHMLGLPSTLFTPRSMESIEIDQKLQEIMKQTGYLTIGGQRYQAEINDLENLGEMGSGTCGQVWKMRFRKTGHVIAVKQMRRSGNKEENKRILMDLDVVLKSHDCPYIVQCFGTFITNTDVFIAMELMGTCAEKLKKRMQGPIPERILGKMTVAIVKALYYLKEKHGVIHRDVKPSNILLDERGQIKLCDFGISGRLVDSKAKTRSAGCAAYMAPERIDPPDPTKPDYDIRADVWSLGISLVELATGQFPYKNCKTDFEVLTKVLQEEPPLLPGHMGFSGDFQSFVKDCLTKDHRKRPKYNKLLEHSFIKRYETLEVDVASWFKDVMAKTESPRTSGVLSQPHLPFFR

[2] = biological target: Serine/threonine-protein kinase N2 (Homo sapiens, UniProt Q16513); test: Selectivity interaction (ActivX KiNativ screen (kinase selectivity in THP-1 cell lysates)) EUB0000639a PKN2; type: subcellular; details: lysate
[3] = biological target: Serine/threonine-protein kinase PAK 6 (Homo sapiens) (UniProt Q9NQU5); test: Selectivity interaction (Kinase panel (Invitrogen)) EUB0000639a PAK6; details: at 200 nM
[4] = biological target: Calcium/calmodulin-dependent protein kinase kinase 2 (Homo sapiens) (UniProt Q96RR4); test: Selectivity interaction (ActivX KiNativ screen (kinase selectivity in THP-1 cell lysates)) EUB0000639a CAMKK2; type: subcellular; details: lysate, at 5 µM
[5] = biological target: AP2-associated protein kinase 1 (Homo sapiens, UniProt Q2M2I8); test: Selectivity interaction (Kinase panel (DSF assay)) EUB0001489b AAK1
Histamine H3 receptor = Histamine H3 receptor (Homo sapiens, UniProt Q9Y5N1); test: Selectivity interaction (Eurofins CEREP Diversity Profile (receptors and ion channels)) EUB0000279b HRH3; details: at 10 µM
[6] = biological target: Serine/threonine-protein kinase SBK1 (Homo sapiens) (UniProt Q52WX2); test: Selectivity interaction (KinomeScan (DiscoverX)) EUB0000229b SBK1; details: at 10 µM
[7] = biological target: Mitogen-activated protein kinase 14 (Homo sapiens, UniProt Q16539); test: Selectivity interaction (Upstate Kinase Profiler service (Millipore)) EUB0000056c MAPK14; details: at 1 µM
[8] = biological target: Eukaryotic translation initiation factor 2-alpha kinase 1 (Homo sapiens) (UniProt Q9BQI3); test: Selectivity interaction (KinomeScan (DiscoverX)) EUB0001619a EIF2AK1; details: at 1 µM
[9] = biological target: T2, Mitogen-activated protein kinase 15 (Homo sapiens) (UniProt Q8TD08); test: Selectivity interaction (KinomeScan (DiscoverX)) EUB0001619a MAPK15; details: at 1 µM
T2 sequence (whole entry): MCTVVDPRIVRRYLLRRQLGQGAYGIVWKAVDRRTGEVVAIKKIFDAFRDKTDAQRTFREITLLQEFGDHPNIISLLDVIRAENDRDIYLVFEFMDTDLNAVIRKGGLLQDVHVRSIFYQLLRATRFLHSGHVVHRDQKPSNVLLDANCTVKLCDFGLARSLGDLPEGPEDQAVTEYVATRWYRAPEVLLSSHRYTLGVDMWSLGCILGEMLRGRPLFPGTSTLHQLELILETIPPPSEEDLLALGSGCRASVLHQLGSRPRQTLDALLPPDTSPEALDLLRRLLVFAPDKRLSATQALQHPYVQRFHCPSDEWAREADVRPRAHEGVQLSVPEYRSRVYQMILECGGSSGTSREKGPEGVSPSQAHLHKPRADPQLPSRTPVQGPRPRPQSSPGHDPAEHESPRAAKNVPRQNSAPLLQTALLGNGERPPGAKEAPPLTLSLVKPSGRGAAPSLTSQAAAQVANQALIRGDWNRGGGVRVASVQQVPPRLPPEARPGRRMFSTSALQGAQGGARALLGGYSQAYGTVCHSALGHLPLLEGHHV

[10] = biological target: Cyclin-dependent kinase 5 (Homo sapiens, UniProt Q00535); test: Selectivity interaction (ActivX KiNativ screen (ex vivo kinase selectivity in human PBMCs)) EUB0001619a CDK5; type: cell-based; details: PBMC, at 1 µM
[11] = biological target: Serine/threonine-protein kinase PLK3 (Homo sapiens, UniProt Q9H4B4); test: Selectivity interaction (KinomeScan (DiscoverX)) EUB0000618a PLK3; details: at 10 µM
[12] = biological target: T3, Serine/threonine-protein kinase Nek5 (Homo sapiens) (UniProt Q6P3R8); test: Selectivity interaction (KinomeScan (DiscoverX)) EUB0000618a NEK5; details: at 10 µM
T3 sequence (whole entry): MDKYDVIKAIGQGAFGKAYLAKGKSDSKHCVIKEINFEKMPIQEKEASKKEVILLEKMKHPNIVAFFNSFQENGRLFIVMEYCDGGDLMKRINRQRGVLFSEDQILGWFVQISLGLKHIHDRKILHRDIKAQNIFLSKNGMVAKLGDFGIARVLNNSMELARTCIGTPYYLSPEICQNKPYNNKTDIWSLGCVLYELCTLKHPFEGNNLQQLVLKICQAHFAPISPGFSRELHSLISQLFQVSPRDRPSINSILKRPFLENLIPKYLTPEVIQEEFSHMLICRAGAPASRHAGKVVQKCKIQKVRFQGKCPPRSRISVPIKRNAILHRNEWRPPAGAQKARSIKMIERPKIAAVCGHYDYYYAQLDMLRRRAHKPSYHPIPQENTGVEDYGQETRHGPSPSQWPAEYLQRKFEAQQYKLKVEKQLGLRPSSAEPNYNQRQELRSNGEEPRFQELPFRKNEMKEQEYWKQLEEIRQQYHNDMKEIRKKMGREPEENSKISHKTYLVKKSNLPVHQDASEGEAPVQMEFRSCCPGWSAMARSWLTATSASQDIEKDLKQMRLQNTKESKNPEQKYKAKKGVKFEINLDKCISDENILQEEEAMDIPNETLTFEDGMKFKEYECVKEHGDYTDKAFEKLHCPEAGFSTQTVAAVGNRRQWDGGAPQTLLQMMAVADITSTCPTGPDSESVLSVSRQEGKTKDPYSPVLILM

[13] = biological target: Myosin-IIIa (Homo sapiens) (UniProt Q8NEV4); test: Selectivity interaction (KinomeScan (DiscoverX)) EUB0000666a MYO3A; details: at 10 µM
[14] = biological target: 5-hydroxytryptamine receptor 1B (Homo sapiens) (UniProt P28222); test: Selectivity interaction (Panel of kinases, GPCRs, ion channels and transporters (enzymatic assay)) EUB0000223bCl HTR1B

Serine/threonine-protein kinase N2, sequence (Q16513 whole entry, looked up): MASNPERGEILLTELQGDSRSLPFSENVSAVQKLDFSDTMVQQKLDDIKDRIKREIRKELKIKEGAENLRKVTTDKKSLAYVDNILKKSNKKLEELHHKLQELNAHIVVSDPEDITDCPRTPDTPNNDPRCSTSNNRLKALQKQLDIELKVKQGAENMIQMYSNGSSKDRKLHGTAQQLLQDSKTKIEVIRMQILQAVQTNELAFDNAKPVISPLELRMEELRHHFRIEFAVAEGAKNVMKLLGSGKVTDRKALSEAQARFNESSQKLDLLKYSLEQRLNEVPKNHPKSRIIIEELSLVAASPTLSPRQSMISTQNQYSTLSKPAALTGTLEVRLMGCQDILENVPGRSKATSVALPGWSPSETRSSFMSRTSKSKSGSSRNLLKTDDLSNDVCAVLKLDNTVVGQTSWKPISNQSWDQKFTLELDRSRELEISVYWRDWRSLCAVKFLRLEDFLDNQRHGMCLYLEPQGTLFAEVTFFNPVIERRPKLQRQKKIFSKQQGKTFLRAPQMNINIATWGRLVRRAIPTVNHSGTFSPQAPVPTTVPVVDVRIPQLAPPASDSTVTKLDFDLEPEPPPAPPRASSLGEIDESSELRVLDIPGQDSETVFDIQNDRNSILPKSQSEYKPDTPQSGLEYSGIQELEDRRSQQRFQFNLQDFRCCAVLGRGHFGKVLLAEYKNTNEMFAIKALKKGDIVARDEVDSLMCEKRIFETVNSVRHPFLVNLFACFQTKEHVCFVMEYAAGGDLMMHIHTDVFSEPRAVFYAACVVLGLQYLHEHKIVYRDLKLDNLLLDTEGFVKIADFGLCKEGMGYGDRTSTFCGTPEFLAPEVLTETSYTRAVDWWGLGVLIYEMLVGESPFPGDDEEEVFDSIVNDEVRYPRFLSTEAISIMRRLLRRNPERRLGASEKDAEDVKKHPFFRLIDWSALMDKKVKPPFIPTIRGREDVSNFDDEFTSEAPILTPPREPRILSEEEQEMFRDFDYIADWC
Calcium/calmodulin-dependent protein kinase kinase 2 (Homo sapiens), sequence (Q96RR4 2-588 limits assumed): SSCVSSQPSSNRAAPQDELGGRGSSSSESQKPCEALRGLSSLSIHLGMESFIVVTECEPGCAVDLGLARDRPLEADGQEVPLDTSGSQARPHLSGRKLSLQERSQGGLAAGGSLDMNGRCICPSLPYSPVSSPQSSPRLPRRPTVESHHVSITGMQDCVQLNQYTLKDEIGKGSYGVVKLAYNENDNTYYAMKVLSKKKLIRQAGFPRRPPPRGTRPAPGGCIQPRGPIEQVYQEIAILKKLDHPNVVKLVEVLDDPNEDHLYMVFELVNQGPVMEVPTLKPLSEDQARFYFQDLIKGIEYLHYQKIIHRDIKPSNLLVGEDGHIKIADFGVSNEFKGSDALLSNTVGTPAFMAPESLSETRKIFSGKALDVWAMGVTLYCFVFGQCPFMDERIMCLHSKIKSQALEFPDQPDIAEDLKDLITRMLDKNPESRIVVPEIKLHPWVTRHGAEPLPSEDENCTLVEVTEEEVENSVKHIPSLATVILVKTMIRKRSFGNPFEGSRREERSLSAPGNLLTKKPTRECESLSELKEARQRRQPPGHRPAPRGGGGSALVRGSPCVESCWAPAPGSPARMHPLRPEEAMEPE
Histamine H3 receptor, sequence (Q9Y5N1 whole entry): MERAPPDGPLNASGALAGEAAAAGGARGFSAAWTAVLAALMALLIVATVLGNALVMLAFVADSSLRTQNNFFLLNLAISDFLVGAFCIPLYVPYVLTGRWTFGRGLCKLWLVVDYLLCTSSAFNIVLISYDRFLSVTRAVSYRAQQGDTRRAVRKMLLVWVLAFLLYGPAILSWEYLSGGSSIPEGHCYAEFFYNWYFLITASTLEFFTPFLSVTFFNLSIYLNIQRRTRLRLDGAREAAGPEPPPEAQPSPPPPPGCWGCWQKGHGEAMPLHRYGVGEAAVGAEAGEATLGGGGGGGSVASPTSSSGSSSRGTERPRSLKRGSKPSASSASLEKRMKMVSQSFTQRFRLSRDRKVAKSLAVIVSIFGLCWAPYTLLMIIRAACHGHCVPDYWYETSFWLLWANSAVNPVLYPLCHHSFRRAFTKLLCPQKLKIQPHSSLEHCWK
Serine/threonine-protein kinase SBK1 (Homo sapiens), sequence (Q52WX2 whole entry): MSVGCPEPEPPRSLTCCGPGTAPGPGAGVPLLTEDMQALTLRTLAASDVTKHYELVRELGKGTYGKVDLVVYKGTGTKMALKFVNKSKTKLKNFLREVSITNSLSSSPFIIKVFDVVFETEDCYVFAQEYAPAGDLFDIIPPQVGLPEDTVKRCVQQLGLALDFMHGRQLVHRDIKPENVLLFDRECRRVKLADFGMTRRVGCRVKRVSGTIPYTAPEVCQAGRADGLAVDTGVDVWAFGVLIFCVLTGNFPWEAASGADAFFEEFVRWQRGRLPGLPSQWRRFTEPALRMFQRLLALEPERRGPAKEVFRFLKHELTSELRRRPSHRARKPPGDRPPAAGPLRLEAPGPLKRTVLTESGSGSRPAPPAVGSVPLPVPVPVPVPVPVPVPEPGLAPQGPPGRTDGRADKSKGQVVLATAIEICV
Serine/threonine-protein kinase PLK3, sequence (Q9H4B4 whole entry, looked up): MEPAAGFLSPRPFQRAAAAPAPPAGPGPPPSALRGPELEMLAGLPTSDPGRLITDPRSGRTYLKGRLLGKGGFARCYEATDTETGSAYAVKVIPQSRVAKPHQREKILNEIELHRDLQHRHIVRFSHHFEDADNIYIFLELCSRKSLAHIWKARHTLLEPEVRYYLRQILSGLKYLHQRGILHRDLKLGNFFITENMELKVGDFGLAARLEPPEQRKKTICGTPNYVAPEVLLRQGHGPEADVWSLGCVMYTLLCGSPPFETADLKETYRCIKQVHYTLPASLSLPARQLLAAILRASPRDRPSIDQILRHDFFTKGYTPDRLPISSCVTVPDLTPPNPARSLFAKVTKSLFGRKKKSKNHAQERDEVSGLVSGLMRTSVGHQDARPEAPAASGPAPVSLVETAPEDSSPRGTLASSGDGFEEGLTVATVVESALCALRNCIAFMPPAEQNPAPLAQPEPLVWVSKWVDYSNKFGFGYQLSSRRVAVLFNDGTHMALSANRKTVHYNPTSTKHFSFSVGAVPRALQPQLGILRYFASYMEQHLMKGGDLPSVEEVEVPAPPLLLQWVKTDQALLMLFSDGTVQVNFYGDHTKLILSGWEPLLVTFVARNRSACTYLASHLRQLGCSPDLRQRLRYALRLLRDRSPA
Cyclin-dependent kinase 5, sequence (Q00535 whole entry, looked up): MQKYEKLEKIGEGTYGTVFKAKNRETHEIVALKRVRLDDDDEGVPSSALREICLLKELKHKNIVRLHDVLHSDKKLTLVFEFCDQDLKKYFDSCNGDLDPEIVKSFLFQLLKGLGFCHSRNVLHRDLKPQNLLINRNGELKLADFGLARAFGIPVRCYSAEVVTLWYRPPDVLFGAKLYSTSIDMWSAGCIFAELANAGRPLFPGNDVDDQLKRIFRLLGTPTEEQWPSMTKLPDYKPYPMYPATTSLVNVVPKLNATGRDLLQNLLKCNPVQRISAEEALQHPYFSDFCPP
Eukaryotic translation initiation factor 2-alpha kinase 1 (Homo sapiens), sequence (Q9BQI3 whole entry): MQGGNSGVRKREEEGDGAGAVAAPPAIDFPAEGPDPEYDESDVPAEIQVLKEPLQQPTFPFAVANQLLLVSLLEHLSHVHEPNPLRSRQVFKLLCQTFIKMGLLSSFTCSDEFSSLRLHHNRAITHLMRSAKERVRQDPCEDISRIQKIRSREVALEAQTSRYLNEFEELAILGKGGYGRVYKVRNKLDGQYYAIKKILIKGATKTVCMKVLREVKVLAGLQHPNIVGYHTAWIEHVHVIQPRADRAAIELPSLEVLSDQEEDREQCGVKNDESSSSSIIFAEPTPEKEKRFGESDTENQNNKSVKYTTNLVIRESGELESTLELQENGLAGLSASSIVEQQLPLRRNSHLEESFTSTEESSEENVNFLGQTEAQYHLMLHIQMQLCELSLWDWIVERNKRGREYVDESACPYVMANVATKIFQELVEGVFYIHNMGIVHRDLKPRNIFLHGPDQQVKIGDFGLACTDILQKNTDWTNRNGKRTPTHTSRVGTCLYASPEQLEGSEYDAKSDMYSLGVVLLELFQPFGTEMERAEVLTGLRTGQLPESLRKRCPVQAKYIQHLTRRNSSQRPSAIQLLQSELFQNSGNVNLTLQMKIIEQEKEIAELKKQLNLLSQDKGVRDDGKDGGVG
Serine/threonine-protein kinase PAK 6 (Homo sapiens), sequence (Q9NQU5 whole entry, looked up): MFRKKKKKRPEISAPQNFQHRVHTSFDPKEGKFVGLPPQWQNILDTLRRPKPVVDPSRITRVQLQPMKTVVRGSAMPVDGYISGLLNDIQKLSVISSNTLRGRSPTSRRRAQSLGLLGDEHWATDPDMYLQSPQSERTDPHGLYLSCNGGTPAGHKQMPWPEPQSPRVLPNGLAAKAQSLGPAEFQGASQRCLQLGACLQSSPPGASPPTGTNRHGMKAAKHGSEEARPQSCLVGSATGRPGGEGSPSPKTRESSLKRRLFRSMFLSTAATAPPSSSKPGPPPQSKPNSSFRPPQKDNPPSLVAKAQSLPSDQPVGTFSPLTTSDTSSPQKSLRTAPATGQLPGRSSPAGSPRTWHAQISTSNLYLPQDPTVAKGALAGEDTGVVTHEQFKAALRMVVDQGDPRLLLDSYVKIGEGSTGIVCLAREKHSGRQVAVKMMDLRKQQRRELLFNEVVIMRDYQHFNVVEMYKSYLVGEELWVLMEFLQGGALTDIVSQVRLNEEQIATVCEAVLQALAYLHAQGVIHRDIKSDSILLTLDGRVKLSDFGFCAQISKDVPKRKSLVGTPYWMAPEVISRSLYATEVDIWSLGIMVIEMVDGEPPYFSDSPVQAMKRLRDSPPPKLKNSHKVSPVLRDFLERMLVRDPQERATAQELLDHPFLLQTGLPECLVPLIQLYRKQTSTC

SMILES: Cc1cc([C@@H](C)Nc2ccccc2C(=O)O)c2nc(N3CCOCC3)cc(=O)n2c1 [AZD-6482]
- % of control [1]: 90%

- % of inhibition ([2]; at 0.01 µM): -6.1%
- % of inhibition ([2]; at 0.04 µM): -5.7%
- % of inhibition ([2]; at 0.2 µM): 2.9%
- % of inhibition ([2]; at 1 µM): 18.9%
- % of inhibition ([2]; at 5 µM): -9.1%
- % of inhibition [3]: 5.16%
- % of inhibition [4]: 56.9%
SMILES: CC[C@@H]1[C@H](F)C(=O)N[C@@H]1COc1nccc2cc(C(N)=O)c(OC)cc12 [ZIMLOVISERTIB]

- dTM [5]: 4.2 K
SMILES: CN1CCN(C(=O)c2ccc3cc2OCCOCCNc2ccn4ncc-3c4n2)CC1

- % of control (Histamine H3 receptor): 105%
SMILES: CC(=O)c1cc(-c2ccccc2OCC2CC2)c2ncccn12

SMILES: COc1cc(N(C)c2ccnc3ccc(C(F)(F)F)cc23)cc(OC)c1OC
- % binding [6]: 92%

- % of inhibition [7]: 0%
SMILES: Cc1ccc(-c2ccc3c(ccc4sc5c(c43)NC[C@@H](C)NC5=O)n2)cn1

SMILES: N#Cc1cccc(-c2c[nH]c3ncnc(N4CCOCC4)c23)c1
- % of control [8]: 100%
- % of control [9]: 56%
- % of inhibition [10]: -9%

SMILES: O[C@H]1CC[C@H](Nc2ncc3nc(Nc4c(F)cc(F)cc4F)n([C@H]4CCOC4)c3n2)CC1
- % of control [11]: 100%
- % of control [12]: 100%

SMILES: O=C(NOC[C@H](O)CO)c1ccc(F)c(F)c1Nc1ccc(I)cc1F
- % of control [13]: 47%

SMILES: COc1cc(C(=O)N2CC[C@@H](O)[C@@H](N)C2)cc2nc(-c3cc4ccccc4n3CC3CC3)n(C)c12
- pXC50 [14]: 4.7 M
